Data: US8871751B2, “Compositions and methods relating to nuclear hormone and steroid hormone receptors including inhibitors of estrogen receptor alpha-mediated gene expression and inhibition of breast cancer” (The Board of Trustees of the University of Illinois, priority 2008, dated 2014)

Target: T1, human PR-B binding to flPRE (Homo sapiens, UniProt P06401)
T1 construct: FLAG; made in house
T1 sequence (P06401 1-933): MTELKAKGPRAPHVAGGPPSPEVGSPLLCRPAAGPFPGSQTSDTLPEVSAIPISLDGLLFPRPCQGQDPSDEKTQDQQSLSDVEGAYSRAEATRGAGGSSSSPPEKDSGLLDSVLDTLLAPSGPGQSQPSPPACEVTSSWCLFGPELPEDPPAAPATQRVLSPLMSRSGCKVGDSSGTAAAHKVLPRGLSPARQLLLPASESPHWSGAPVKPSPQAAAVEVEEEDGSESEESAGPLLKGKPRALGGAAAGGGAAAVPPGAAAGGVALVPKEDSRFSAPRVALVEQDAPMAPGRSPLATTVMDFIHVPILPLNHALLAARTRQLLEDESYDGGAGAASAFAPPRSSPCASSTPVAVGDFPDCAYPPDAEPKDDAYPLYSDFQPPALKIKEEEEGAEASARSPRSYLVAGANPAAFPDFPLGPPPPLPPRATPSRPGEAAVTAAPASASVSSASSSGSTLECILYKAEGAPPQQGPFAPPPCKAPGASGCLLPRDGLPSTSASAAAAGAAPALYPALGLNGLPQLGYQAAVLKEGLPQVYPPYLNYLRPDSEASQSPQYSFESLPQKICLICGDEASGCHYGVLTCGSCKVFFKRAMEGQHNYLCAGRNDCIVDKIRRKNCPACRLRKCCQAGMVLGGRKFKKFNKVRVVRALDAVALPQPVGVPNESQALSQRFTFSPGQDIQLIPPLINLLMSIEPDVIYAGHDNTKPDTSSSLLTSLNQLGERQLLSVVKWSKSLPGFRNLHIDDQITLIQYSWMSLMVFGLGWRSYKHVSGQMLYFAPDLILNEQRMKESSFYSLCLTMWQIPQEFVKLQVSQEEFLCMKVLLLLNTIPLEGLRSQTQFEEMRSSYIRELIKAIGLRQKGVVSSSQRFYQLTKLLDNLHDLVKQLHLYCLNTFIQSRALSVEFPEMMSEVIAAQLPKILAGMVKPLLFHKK
Assay: FAMA: inhibition of PR binding to flcPRE
Conditions: binding to HRE, 5 concentrations 0.5-10 μM, sequential method
Experimental: (§1) Dose response curves for selected compounds were carried out as described for the HTS screen except that each well contained the indicated concentration of test compound. PR assays were carried out in the same buffer used for ERα assays and contained 1 nM flcPRE and 11 nM PR-B and 100 nM progesterone. The buffer used for AR was similar but also contained 5 μM ZnCl, 5 mM NaF, 0.6 μM CHAPS and 100 nM dihydrotestosterone. AR assays contained 1 nM flcARE and 50 nM full-length wild-type AR.
(§2) Specificity was evaluated in dose-response studies by quantitative FAMA using purified full-length human PR binding to a fluorescein-labeled progesterone/glucocorticoid response element (flPRE) and full-length human androgen receptor (AR) binding to a fluorescein-labeled androgen response element (flARE).

SMILES | IC50 [µM]
CCC1CCC(C)NC1 (stereo not shown) [Compound 6119] | 9
CCN(CC)CCOC(=O)c1cc(Br)cc(-c2ccccc2)c1O [Compound 7450] | > 10
c1ccc(-c2oc(-c3ccccc3)c(CN3CCCCC3)c2CN2CCCCC2)cc1 [Compound 7473] | > 10
Cc1ccccc1NCC(C)O (stereo not shown) [Compound 7484] | > 10
O=C(O)c1cccc2cccc(-c3cccc4cccc(C(=O)O)c34)c12 [Compound 7810] | > 10
C=CCOC(=O)c1ccc(Cl)cc1 [Compound 8216] | > 10
O=C1C(CO)C(CO)C(CO)C1CO (stereo not shown) [Compound 9064] | > 10
Nc1ccc(S(=O)(=O)c2ccc(NCN3C(=O)NC(=O)C(=O)C3=O)cc2)cc1 [Compound 34238] | > 10
C=C(CC(=O)O)C(=O)O.C=CC(=O)O [Compound 146443] | 0.4

Now from value to compound:

IC50 [µM] | SMILES
5.3 | CC(C)/C=N/Nc1ccc([N+](=O)[O-])cc1[N+](=O)[O-] [Compound 6122]
> 10 | CC(=O)N(C)c1ccc(N)cc1 [Compound 7107]
> 10 | CCCCCCC1(c2cccnc2)NC(=O)NC1=O (stereo not shown) [Compound 9503]

Target: T2, human androgen receptor (AR) binding to flARE (Homo sapiens, UniProt P10275)
T2 construct: AR assays contained 1 nM flcARE and 50 nM full-length wild-type AR; FLAG; made in house
T2 sequence (P10275 1-920): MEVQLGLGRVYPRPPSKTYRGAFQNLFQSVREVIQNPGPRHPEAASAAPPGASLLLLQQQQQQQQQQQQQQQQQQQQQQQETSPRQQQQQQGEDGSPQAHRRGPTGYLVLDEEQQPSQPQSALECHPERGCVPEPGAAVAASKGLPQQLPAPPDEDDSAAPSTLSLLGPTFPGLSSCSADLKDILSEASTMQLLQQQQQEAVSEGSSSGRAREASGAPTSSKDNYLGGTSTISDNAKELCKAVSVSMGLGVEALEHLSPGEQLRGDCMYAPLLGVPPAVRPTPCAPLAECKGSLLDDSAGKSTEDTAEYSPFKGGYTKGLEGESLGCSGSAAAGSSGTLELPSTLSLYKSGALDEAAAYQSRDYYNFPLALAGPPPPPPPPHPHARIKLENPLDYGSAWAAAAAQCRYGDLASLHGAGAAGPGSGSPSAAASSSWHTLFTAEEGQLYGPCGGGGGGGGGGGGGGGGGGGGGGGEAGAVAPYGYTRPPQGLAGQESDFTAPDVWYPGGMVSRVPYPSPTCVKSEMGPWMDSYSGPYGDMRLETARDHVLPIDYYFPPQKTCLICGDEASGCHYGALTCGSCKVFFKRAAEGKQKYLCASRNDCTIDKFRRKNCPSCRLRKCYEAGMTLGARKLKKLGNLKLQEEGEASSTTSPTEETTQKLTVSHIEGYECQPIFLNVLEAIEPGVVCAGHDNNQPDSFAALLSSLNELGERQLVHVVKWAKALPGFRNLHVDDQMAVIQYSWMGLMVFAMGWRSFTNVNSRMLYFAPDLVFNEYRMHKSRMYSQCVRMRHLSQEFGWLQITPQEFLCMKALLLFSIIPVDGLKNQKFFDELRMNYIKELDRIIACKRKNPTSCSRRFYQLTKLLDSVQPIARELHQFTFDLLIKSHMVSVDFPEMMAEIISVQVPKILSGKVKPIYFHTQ
Assay: FAMA: inhibition of AR binding to flcARE
Conditions: binding to HRE, 5 concentrations 0.5-10 μM, sequential method
Experimental: as §1, §2

SMILES | IC50 [µM]
CCC1CCC(C)NC1 (stereo not shown) [Compound 6119] | 7.4
O=[N+]([O-])c1ccc(CO)o1 [Compound 6454] | > 10
CCN(CC)CCOC(=O)c1cc(Br)cc(-c2ccccc2)c1O [Compound 7450] | > 10
c1ccc(-c2oc(-c3ccccc3)c(CN3CCCCC3)c2CN2CCCCC2)cc1 [Compound 7473] | > 10
Cc1ccccc1NCC(C)O (stereo not shown) [Compound 7484] | > 10
O=C(O)c1cccc2cccc(-c3cccc4cccc(C(=O)O)c34)c12 [Compound 7810] | > 10
C=CCOC(=O)c1ccc(Cl)cc1 [Compound 8216] | > 10
O=C1C(CO)C(CO)C(CO)C1CO (stereo not shown) [Compound 9064] | > 10
CCc1c(O)c2c(c(O)c1C(C)=O)C(=O)c1c(cc(O)c(C(=O)O)c1C(=O)O)C2=O [Compound 170008] | 9

More lines, now with the values ahead:

IC50 [µM] | SMILES
3 | O=C(O)/C=C/c1ccc([N+](=O)[O-])cc1 [Compound 2067]
3.7 | CC(C)/C=N/Nc1ccc([N+](=O)[O-])cc1[N+](=O)[O-] [Compound 6122]
7.5 | O=C(CCBr)OCCc1ccccc1 [Compound 7122]
> 10 | CCCCCCC1(c2cccnc2)NC(=O)NC1=O (stereo not shown) [Compound 9503]

Target: T3, human ERα binding to flcERE (Homo sapiens, UniProt P03372)
T3 construct: Full-length FLAG-tagged human ERα was expressed and purified as described previously (27); FLAG; made in house
T3 sequence (P03372 1-595): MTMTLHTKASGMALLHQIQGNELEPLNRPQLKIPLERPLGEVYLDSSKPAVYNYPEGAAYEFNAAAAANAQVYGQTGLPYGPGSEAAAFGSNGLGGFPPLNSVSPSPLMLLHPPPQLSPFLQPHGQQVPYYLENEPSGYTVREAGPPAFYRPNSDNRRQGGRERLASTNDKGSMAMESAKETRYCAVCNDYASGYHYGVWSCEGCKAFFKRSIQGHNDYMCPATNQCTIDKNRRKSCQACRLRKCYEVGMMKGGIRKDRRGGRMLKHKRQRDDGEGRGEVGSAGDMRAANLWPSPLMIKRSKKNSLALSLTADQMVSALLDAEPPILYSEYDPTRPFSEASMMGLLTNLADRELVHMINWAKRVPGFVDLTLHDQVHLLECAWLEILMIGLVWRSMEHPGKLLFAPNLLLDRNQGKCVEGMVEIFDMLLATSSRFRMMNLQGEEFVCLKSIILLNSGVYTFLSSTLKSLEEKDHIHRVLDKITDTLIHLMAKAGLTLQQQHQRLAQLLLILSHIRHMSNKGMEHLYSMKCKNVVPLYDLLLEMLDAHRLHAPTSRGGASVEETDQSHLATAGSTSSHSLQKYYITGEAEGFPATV
Assay: FAMA: inhibition of ERα binding to flcERE
Conditions: FAMA, binding to HRE, 5 concentrations 0.5-10 μM, sequential method; read-out: IC50 ERα
Experimental: Prior to screening, the 10 mM library stocks were diluted to produce replica libraries in 384-well plates containing each small molecule at 0.25 mM (in DMSO). In our initial studies we were concerned that forming the flcERE-ERα complex first and then adding the candidate small molecule inhibitors would miss small molecules that bind at the interface. We therefore screened using the “sequential” method in which the candidate small molecules were first incubated with ERα and followed by addition of the flcERE. The assay for binding of ERα to the flcERE is a modification of our earlier assay (27). Assays were carried out at room temperature in black wall 384-well microplates (Greiner/Bio-One) in a total volume of 10 μl in buffer containing 20 mM Tris pH 7.5, 10% glycerol, 0.2 mM EDTA, 2 mM DTT, 100 mM KCl, 0.5 ng/μl poly dl:dC, […] bovine serum albumin and 100 nM 17β-estradiol (E2). For high throughput screening, a master mix without ERα and probe was prepared at 4° C. The master mix was divided into 2 parts. ERα was added to one part to 5 nM in the final assays. 7 μl of the ERα-containing mix was then dispensed into each well of a 384-well plate on ice. 100 nl of the compounds being tested was then added using a pin-transporter (V & P Scientific, Inc, CA) to a final concentration of 2.5 μM. The samples were mixed using the pin-transporter and sedimented by centrifugation for 2 min. at 4° C. and incubated on ice for 10 min. The flcERE probe was added to the other aliquot of the mix to 1 nM. 3 μl of the mix containing the flcERE probe was added to each well containing ERα and the test compound. The samples were mixed using the pin-transporter, the plates were briefly centrifuged and incubated at room temperature for 10 min. and fluorescence anisotropy (FA) was measured using a BMG PheraStar (BMG Labtech) microplate reader (module: 485 520) with excitation at 485λ and emission at 520λ. To identify small molecules that were highly fluorescent, or quench fluorescence, fluorescence intensity was also measured.
as §1

SMILES | IC50 [µM]
CCC1CCC(C)NC1 (stereo not shown) [Compound 6119] | 9
O=[N+]([O-])c1ccc(CO)o1 [Compound 6454] | 5.8
CCN(CC)CCOC(=O)c1cc(Br)cc(-c2ccccc2)c1O [Compound 7450] | 9.8
c1ccc(-c2oc(-c3ccccc3)c(CN3CCCCC3)c2CN2CCCCC2)cc1 [Compound 7473] | 9
Cc1ccccc1NCC(C)O (stereo not shown) [Compound 7484] | 9.5
O=C(O)c1cccc2cccc(-c3cccc4cccc(C(=O)O)c34)c12 [Compound 7810] | > 10
C=CCOC(=O)c1ccc(Cl)cc1 [Compound 8216] | 9
O=C1C(CO)C(CO)C(CO)C1CO (stereo not shown) [Compound 9064] | > 10
Nc1ccc(S(=O)(=O)c2ccc(NCN3C(=O)NC(=O)C(=O)C3=O)cc2)cc1 [Compound 34238] | 1.8
CCc1c(O)c2c(c(O)c1C(C)=O)C(=O)c1c(cc(O)c(C(=O)O)c1C(=O)O)C2=O [Compound 170008] | 9

Next, values leading:

IC50 [µM] | SMILES
5 | O=C(O)/C=C/c1ccc([N+](=O)[O-])cc1 [Compound 2067]
5.8 | CC(C)/C=N/Nc1ccc([N+](=O)[O-])cc1[N+](=O)[O-] [Compound 6122]
5 | CC(=O)N(C)c1ccc(N)cc1 [Compound 7107]
5 | O=C(CCBr)OCCc1ccccc1 [Compound 7122]
2.6 | CCCCCCC1(c2cccnc2)NC(=O)NC1=O (stereo not shown) [Compound 9503]
